Experiment [1] concerns the target T1, maize (Zea mays) class I EPSPS variant TIPI (T102I, P106I), pMON42486 (Zea mays, UniProt O24566, P106I/T102I).
T1 construct: pMON42486
T1 sequence (O24566 1-444 T102I/P106I): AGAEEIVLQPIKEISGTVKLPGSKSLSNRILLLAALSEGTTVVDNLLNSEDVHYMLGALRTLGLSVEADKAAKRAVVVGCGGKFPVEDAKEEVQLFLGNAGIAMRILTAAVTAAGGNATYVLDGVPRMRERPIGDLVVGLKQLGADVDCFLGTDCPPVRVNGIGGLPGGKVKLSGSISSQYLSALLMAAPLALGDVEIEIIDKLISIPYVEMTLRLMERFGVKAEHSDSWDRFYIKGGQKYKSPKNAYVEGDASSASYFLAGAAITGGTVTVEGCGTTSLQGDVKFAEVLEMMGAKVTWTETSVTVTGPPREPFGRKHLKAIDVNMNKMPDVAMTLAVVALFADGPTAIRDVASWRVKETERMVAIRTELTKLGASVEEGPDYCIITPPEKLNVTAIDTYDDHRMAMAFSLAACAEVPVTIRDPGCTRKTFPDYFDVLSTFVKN
Nature of the experiment: EPSPS steady-state kinetics, TIPI variant. The class given is biochemical. The source says:
(§1) The double variants of the present invention were made using pMON58452 (FIG. 5) as the template. This pMON58452 EPSPS gene template contains the maize EPSPS double variant T102I, P106T (TIPT) that was constructed by mutagenesis of pMON70467 with the mutagenesis primers mEmut-9-U and mEmut-10-L. The various mutagenesis primer sequences were designed and then were synthesized by Invitrogen Corp., Custom Primers and used in combination in a PCR to create the variant EPSPS coding sequences. The PCR was set up in a 50 μl reaction in the following manner: dH2O 38 μl; 2 mM dNTP 1 μL; 10× buffer 5 μL; pMON58452 1 μL (10 ng); primer-U 2 μL; primer-L 2 μL; pfu Turbo enzyme 1 μL. PCR was carried out on a MJ Research PTC-200 thermal cycler using the following program: Step 1—94° C. for 30 seconds; Step 2—94° C. for 30 seconds; Step 3—55° C. for 1 minute; Step 4—68° C. for 14 minute; Step 5—go to step 2, 16 times; Step 6—End. At the end of the PCR, 1 μl of the restriction enzyme DpnI was added to each 50 μl of PCR reaction and the mixture was incubated at 37° C. for 1 hour. […]

For experiment [2], the target named is T2, maize (Zea mays) class I EPSPS variant TIPV (T102I, P106V), pMON42482 (Zea mays, UniProt O24566, P106V/T102I).
T2 construct: pMON42482
T2 sequence (O24566 1-444 T102I/P106V): T1 sequence (O24566 1-444 T102I/P106I) with I106V
The experiment can be described thus: EPSPS steady-state kinetics, TIPV variant. The class given is biochemical.
Source text: as §1

Positions count from the first letter of the chain named.

What is called Ki is a dissociation constant, usually derived from enzyme kinetics or from competition with a known ligand.

On to `O=C(O)CNCP(=O)(O)O` [glyphosate, N-phosphonomethylglycine], for which the Ki was determined as 2.5 ± 0.9 mM in experiment [1] and 1.6 ± 0.4 mM in experiment [2].
